Measurements published in ChEMBL document CHEMBL2150933 (J Med Chem, 2012).
The source made the active and inactive calls. No cut-off for these calls is given here.

Key:
SK-MEL-2 [1] = assay: Antitumor activity against human SK-MEL-2 cells xenografted in athymic nu/nu Harlan mouse assessed as tumor growth inhibition at 8 mg/kg, ip administered Q4D for 3 days relative to control; format: functional, organism-based; design: dose 8 mg/kg
[2] = Toxicity in iv dosed CD1 mouse administered Q2D for 8 days; format: organism-based; settings: CD1, mouse, in vivo
[3] = Plasma concentration in CD1 mouse at 1 mg/kg, iv administered as single dose measured after 5 mins; format: ADME, organism-based; design: dose 1 mg/kg, route intravenous
[4] = Plasma concentration in CD1 mouse at 1 mg/kg, iv administered as single dose measured after 30 mins; format: ADME, organism-based; design: dose 1 mg/kg, route intravenous
[5] = Plasma concentration in CD1 mouse at 1 mg/kg, iv administered as single dose measured after 120 mins; format: ADME, organism-based; design: dose 1 mg/kg, route intravenous
MDA-MB-468 = assay: Cytotoxicity against human MDA-MB-468 cells after 48 hrs by SRB assay; format: functional; settings: MDA-MB-468, 48 h
[6] = Toxicity in iv dosed CD1 mouse administered as single dose; format: organism-based; settings: in vivo
EKVX = assay: Cytotoxicity against human EKVX cells after 48 hrs by SRB assay; format: functional
HOP-62 = assay: Cytotoxicity against human HOP62 cells after 48 hrs by SRB assay; format: functional; settings: HOP-62, 48 h
A549 [7] = assay: Cytotoxicity against human A549 cells after 48 hrs by SRB assay; format: functional; settings: A549, 48 h, read-out: pGI50 (converted)
RPMI-8226 = assay: Cytotoxicity against human RPMI8226 cells after 48 hrs by SRB assay; format: functional; settings: RPMI-8226, 48 h
SR = assay: Cytotoxicity against human SR cells after 48 hrs by SRB assay; format: functional
K562 = assay: Cytotoxicity against human K562 cells after 48 hrs by SRB assay; format: functional; settings: K562, 48 h
MOLT-4 = assay: Cytotoxicity against human MOLT4 cells after 48 hrs by SRB assay; format: functional; settings: MOLT-4, 48 h
CCRF-CEM = assay: Cytotoxicity against human CCRF-CEM cells after 48 hrs by SRB assay; format: functional
HL-60 = assay: Cytotoxicity against human HL60 cells after 48 hrs by SRB assay; format: functional; settings: HL-60, 48 h
BXPC-3 = assay: Cytotoxicity against human BxPC3 cells after 72 hrs by MTT assay; format: functional; settings: BXPC-3, 72 h
COLO 205 [8] = assay: Cytotoxicity against human COLO205 cells after 72 hrs by MTT assay; format: functional; settings: COLO 205, 72 h
A549 [9] = assay: Cytotoxicity against human A549 cells after 72 hrs by MTT assay; format: functional; settings: A549, 72 h
HOP-92 = assay: Cytotoxicity against human HOP92 cells after 48 hrs by SRB assay; format: functional; settings: HOP-92, 48 h
NCI-H226 = assay: Cytotoxicity against human NCI-H226 cells after 48 hrs by SRB assay; format: functional; settings: NCI-H226, 48 h
NCI-H23 = assay: Cytotoxicity against human NCI-H23 cells after 48 hrs by SRB assay; format: functional; settings: NCI-H23, 48 h
NCI-H460 = assay: Cytotoxicity against human NCI-H460 cells after 48 hrs by SRB assay; format: functional; settings: NCI-H460, 48 h
NCI-H522 = assay: Cytotoxicity against human NCI-H522 cells after 48 hrs by SRB assay; format: functional; settings: NCI-H522, 48 h
COLO 205 [10] = assay: Cytotoxicity against human COLO205 cells after 48 hrs by SRB assay; format: functional; settings: COLO 205, 48 h
HCC 2998 = assay: Cytotoxicity against human HCC2998 cells after 48 hrs by SRB assay; format: functional; settings: HCC 2998, 48 h
HCT-116 = assay: Cytotoxicity against human HCT116 cells after 48 hrs by SRB assay; format: functional; settings: HCT-116, 48 h
HCT-15 = assay: Cytotoxicity against human HCT15 cells after 48 hrs by SRB assay; format: functional; settings: HCT-15, 48 h
HT-29 = assay: Cytotoxicity against human HT-29 cells after 48 hrs by SRB assay; format: functional; settings: HT-29, 48 h
KM12 = assay: Cytotoxicity against human KM12 cells after 48 hrs by SRB assay; format: functional; settings: KM12, 48 h
SW-620 = assay: Cytotoxicity against human SW620 cells after 48 hrs by SRB assay; format: functional; settings: SW-620, 48 h
SF-268 = assay: Cytotoxicity against human SF268 cells after 48 hrs by SRB assay; format: functional; settings: SF-268, 48 h
SF-295 = assay: Cytotoxicity against human SF295 cells after 48 hrs by SRB assay; format: functional; settings: SF-295, 48 h, read-out: pGI50 (converted)
SF-539 = assay: Cytotoxicity against human SF539 cells after 48 hrs by SRB assay; format: functional; settings: SF-539, 48 h
SNB-19 = assay: Cytotoxicity against human SNB19 cells after 48 hrs by SRB assay; format: functional; settings: SNB-19, 48 h
SNB-75 = assay: Cytotoxicity against human SNB75 cells after 48 hrs by SRB assay; format: functional; settings: SNB-75, 48 h
U-251 = assay: Cytotoxicity against human U251 cells after 48 hrs by SRB assay; format: functional; settings: U-251, 48 h, read-out: pGI50 (converted)
LOX IMVI = assay: Cytotoxicity against human LOXIMVI cells after 48 hrs by SRB assay; format: functional
Malme-3M = assay: Cytotoxicity against human MALME-3M cells after 48 hrs by SRB assay; format: functional
M14 = assay: Cytotoxicity against human M14 cells after 48 hrs by SRB assay; format: functional; settings: M14, 48 h
MDA-MB-435 = assay: Cytotoxicity against human MDA-MB-435 cells after 48 hrs by SRB assay; format: functional; settings: MDA-MB-435, 48 h
SK-MEL-2 [11] = assay: Cytotoxicity against human SK-MEL-2 cells after 48 hrs by SRB assay; format: functional; settings: SK-MEL-2, 48 h
SK-MEL-28 = assay: Cytotoxicity against human SK-MEL-28 cells after 48 hrs by SRB assay; format: functional; settings: SK-MEL-28, 48 h
SK-MEL-5 = assay: Cytotoxicity against human SK-MEL-5 cells after 48 hrs by SRB assay; format: functional; settings: SK-MEL-5, 48 h, read-out: pGI50 (converted)
UACC-257 = assay: Cytotoxicity against human UACC257 cells after 48 hrs by SRB assay; format: functional; settings: UACC-257, 48 h
UACC-62 = assay: Cytotoxicity against human UACC62 cells after 48 hrs by SRB assay; format: functional; settings: UACC-62, 48 h
IGROV-1 = assay: Cytotoxicity against human IGROV1 cells after 48 hrs by SRB assay; format: functional; settings: IGROV-1, 48 h, read-out: pGI50 (converted)
OVCAR-3 = assay: Cytotoxicity against human OVCAR3 cells after 48 hrs by SRB assay; format: functional; settings: OVCAR-3, 48 h
OVCAR-4 = assay: Cytotoxicity against human OVCAR4 cells after 48 hrs by SRB assay; format: functional; settings: OVCAR-4, 48 h
OVCAR-5 = assay: Cytotoxicity against human OVCAR5 cells after 48 hrs by SRB assay; format: functional; settings: OVCAR-5, 48 h
OVCAR-8 = assay: Cytotoxicity against human OVCAR8 cells after 48 hrs by SRB assay; format: functional; settings: OVCAR-8, 48 h, read-out: pGI50 (converted)
[12] = Cytotoxicity against human NCI-ADR-RES cells after 48 hrs by SRB assay; format: functional
SK-OV-3 = assay: Cytotoxicity against human SKOV3 cells after 48 hrs by SRB assay; format: functional; settings: SK-OV-3, 48 h
[13] = Cytotoxicity against human 786-O cells after 48 hrs by SRB assay; format: functional; settings: 786-0, 48 h
A498 = assay: Cytotoxicity against human A498 cells after 48 hrs by SRB assay; format: functional; settings: A498, 48 h
ACHN = assay: Cytotoxicity against human ACHN cells after 48 hrs by SRB assay; format: functional
CAKI-1 = assay: Cytotoxicity against human Caki1 cells after 48 hrs by SRB assay; format: functional; settings: CAKI-1, 48 h
RXF 393 = assay: Cytotoxicity against human RXF393 cells after 48 hrs by SRB assay; format: functional; settings: RXF 393, 48 h
SN12C = assay: Cytotoxicity against human SN12C cells after 48 hrs by SRB assay; format: functional
TK-10 = assay: Cytotoxicity against human TK10 cells after 48 hrs by SRB assay; format: functional; settings: TK-10, 48 h
UO-31 = assay: Cytotoxicity against human UO31 cells after 48 hrs by SRB assay; format: functional; settings: UO-31, 48 h
PC-3 = assay: Cytotoxicity against human PC3 cells after 48 hrs by SRB assay; format: functional; settings: PC-3, 48 h
DU-145 = assay: Cytotoxicity against human DU145 cells after 48 hrs by SRB assay; format: functional; settings: DU-145, 48 h
MCF7 = assay: Cytotoxicity against human MCF7 cells after 48 hrs by SRB assay; format: functional; settings: MCF7, 48 h
MDA-MB-231 = assay: Cytotoxicity against human MDA-MB-231 cells after 48 hrs by SRB assay; format: functional; settings: MDA-MB-231, 48 h
Hs-578T = assay: Cytotoxicity against human Hs578T cells after 48 hrs by SRB assay; format: functional
BT-549 = assay: Cytotoxicity against human BT549 cells after 48 hrs by SRB assay; format: functional; settings: BT-549, 48 h
T47D = assay: Cytotoxicity against human T47D cells after 48 hrs by SRB assay; format: functional

COc1cccc2c1C(=O)c1c(O)c3c(c(O)c1C2=O)C[C@@](O)(C(=O)CO)C[C@@H]3O[C@H]1C[C@H](N)[C@H](O)[C@H](C)O1
TGI (SK-MEL-2 [1]): Active

CO[C@H](C(=O)[C@@H](O)[C@@H](C)O)[C@@H]1Cc2cc3cc(O[C@H]4C[C@@H](O[C@H]5C[C@@H](O)[C@H](O)[C@@H](C)O5)[C@H](O)[C@@H](C)O4)c(C)c(O)c3c(O)c2C(=O)[C@H]1O[C@H]1C[C@@H](O[C@H]2C[C@@H](O[C@H]3C[C@](C)(O)[C@H](O)[C@@H](C)O3)[C@@H](O)[C@@H](C)O2)[C@H](O)[C@@H](C)O1 [PLICAMYCIN]
MTD at 192 h [2]: 0.6 mg/kg
concentration at 5 min [3]: 2700 nM
concentration at 0.5 h [4]: 200 nM
concentration at 2 h [5]: < 100 nM

CO[C@H](C(=O)C(C)=O)[C@@H]1Cc2cc3cc(O[C@H]4C[C@@H](O[C@H]5C[C@@H](O)[C@H](O)[C@@H](C)O5)[C@H](O)[C@@H](C)O4)c(C)c(O)c3c(O)c2C(=O)[C@H]1O[C@H]1C[C@@H](O[C@H]2C[C@@H](O[C@H]3C[C@H](O)[C@H](O)[C@@H](C)O3)[C@H](O)[C@@H](C)O2)[C@H](O)[C@@H](C)O1
GI50 (MDA-MB-468): 23.4 nM
MTD [6]: 4 mg/kg
GI50 (EKVX): 91.2 nM
GI50 (HOP-62): 16.6 nM
GI50 (A549 [7]): 24.6 nM
GI50 (RPMI-8226): 15.8 nM
GI50 (SR): 11.8 nM
GI50 (K562): 19.5 nM
GI50 (MOLT-4): 27.5 nM
GI50 (CCRF-CEM): 24 nM
GI50 (HL-60): 17.4 nM
GI50 (BXPC-3): 300 nM
GI50 (COLO 205 [8]): 300 nM
GI50 (A549 [9]): 300 nM
GI50 (HOP-92): 19.9 nM
GI50 (NCI-H226): 34.7 nM
GI50 (NCI-H23): 14.8 nM
GI50 (NCI-H460): 17.8 nM
GI50 (NCI-H522): 19.9 nM
GI50 (COLO 205 [10]; read-out: GI50): 32 nM
GI50 (COLO 205 [10]; read-out: pGI50 (converted)): 30.2 nM
GI50 (HCC 2998): 12.9 nM
GI50 (HCT-116): 14.8 nM
GI50 (HCT-15): 182 nM
GI50 (HT-29): 24.6 nM
GI50 (KM12): 12.9 nM
GI50 (SW-620): 24 nM
GI50 (SF-268): 18.6 nM
GI50 (SF-295): 17 nM
GI50 (SF-539): 20.9 nM
GI50 (SNB-19): 17 nM
GI50 (SNB-75): 11 nM
GI50 (U-251): 17.4 nM
GI50 (LOX IMVI): 13.5 nM
GI50 (Malme-3M): 34.7 nM
GI50 (M14): 36.3 nM
GI50 (MDA-MB-435): 25.1 nM
GI50 (SK-MEL-2 [11]): 15.1 nM
GI50 (SK-MEL-28): 20.9 nM
GI50 (SK-MEL-5): 22.4 nM
GI50 (UACC-257): 58.9 nM
GI50 (UACC-62): 13.5 nM
GI50 (IGROV-1): 23.4 nM
GI50 (OVCAR-3): 19.9 nM
GI50 (OVCAR-4): 72.4 nM
GI50 (OVCAR-5): 30.9 nM
GI50 (OVCAR-8): 25.7 nM
GI50 [12]: 1660 nM
GI50 (SK-OV-3): 25.1 nM
GI50 [13]: 25.1 nM
GI50 (A498): 47.9 nM
GI50 (ACHN): 74.1 nM
GI50 (CAKI-1): 126 nM
GI50 (RXF 393): 13.5 nM
GI50 (SN12C): 24.6 nM
GI50 (TK-10): 85.1 nM
GI50 (UO-31): 126 nM
GI50 (PC-3): 22.9 nM
GI50 (DU-145): 25.1 nM
GI50 (MCF7): 19.9 nM
GI50 (MDA-MB-231; read-out: GI50): 63 nM
GI50 (MDA-MB-231; read-out: pGI50 (converted)): 66.1 nM
GI50 (Hs-578T): 16.2 nM
GI50 (BT-549): 13.5 nM
GI50 (T47D): 33.9 nM
